{"source": "patent US11141403B2", "about": "“Benzimidazoles and indoles as taro inhibitors” (MERCK SHARP & DOHME CORP., priority 2015, dated 2021)", "key": {"MRSA COL (MB5393)": {"tested_on": "MRSA COL (MB5393)", "experiment": "TarO Inhibitor/β-Lactam Synergy Assay", "format": "cell-based, Staphylococcus aureus", "conditions": "20 hours", "in_short": "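TarO inhibitors titrated 2-fold from 200 μM (2% DMSO) against MRSA COL, 5×10^5 CFU in CAMHB, with β-lactam fixed at clinical breakpoint (imipenem 4 μg/ml or dicloxacillin 8 μg/ml). Incubated 20 h at 37 °C without shaking; relative growth read as OD600.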"}, "TarO": {"target": "TarO (Staphylococcus aureus, UniProt Q2G060)", "sequence (Q2G060 1-351)": "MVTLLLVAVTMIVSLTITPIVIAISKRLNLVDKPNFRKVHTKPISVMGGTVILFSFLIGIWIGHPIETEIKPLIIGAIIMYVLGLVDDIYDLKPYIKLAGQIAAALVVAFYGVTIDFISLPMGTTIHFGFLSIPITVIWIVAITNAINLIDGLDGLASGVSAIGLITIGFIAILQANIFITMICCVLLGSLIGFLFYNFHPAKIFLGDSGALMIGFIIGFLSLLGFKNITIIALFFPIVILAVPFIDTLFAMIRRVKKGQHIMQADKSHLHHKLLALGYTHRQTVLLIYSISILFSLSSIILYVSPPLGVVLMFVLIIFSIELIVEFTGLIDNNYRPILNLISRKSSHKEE", "experiment": "TarO Biochemical Enzymatic Assay (LC-MS end point, C55-PP-GlcNAc (LIPID III) production)", "conditions": "TarO membrane preparation derived from MRSA COL; read-out: TARO inhibitor IC50", "description": "The pathway for the biosynthesis of wall teichoic acid (WTA) in Staphylococci involves a series of biochemical enzymatic reactions by proteins encoded by the tar genes (teichoic acid ribitol). The first enzymatic step in the synthesis of WTA is initiated by TarO, N-acetylglucosaminyl-1-P transferase, which catalyzes the transfer of N-acetyl-glucosamine-phosphate (GlcNAc-P) to an undecaprenyl phosphate (C55-P), also known as bactoprenyl phosphate, to generate C55-PP-GlcNAc (LIPID III).\nThe TarO biochemical enzymatic assay is a liquid chromatography-mass spectroscopy (LC-MS) based end point assay that measures C55-P-P-GlcNAc (LIPID III) production. The TarO biochemical enzymatic assay was performed in a 384-well microtiter plate (Labcyte) with a reaction volume of 20 μl. […] The linearity of C55-PP-GlcNAc concentration versus mass spectrometric signal (AC55-PP-GlcNAc/A15C-C55-PP-GlcNAc) was determined with purified C55-PP-GlcNAc. The IC50 values were calculated using the nonlinear regression analysis (sigmoidal dose response fit allowing for a variable slope) of percent inhibition data with minimum and maximum values set to 0 and 100 percent."}}, "data": [{"smiles": "CCN(C(=O)CCn1c(C2CCCN(C(=O)OC(C)(C)C)C2)nc2ccccc21)C1CCCCC1", "note": "(stereo not shown) [Example 54]", "values": [{"measurement": "IC95", "setting": "MRSA COL (MB5393); TarO inhibitor alone, OD600, 95% growth inhibition, read-out: MITC95 TarO inhibitor alone, Bacteria: SA_MB5393", "result": 100, "unit": "µM"}, {"measurement": "MITC95 TarO inhibitor + 4 μg/mL IPM; Bacteria: SA_MB5393", "setting": "MRSA COL (MB5393); in combination with 4 μg/mL imipenem, OD600", "result": 1.56, "unit": "µM"}, {"measurement": "MITC95 TarO inhibitor + 8 μg/mL DCX; Bacteria: SA_MB5393", "setting": "MRSA COL (MB5393); in combination with 8 μg/mL dicloxacillin, OD600", "result": 12.50, "unit": "µM"}, {"measurement": "IC50", "setting": "TarO", "result": 0.45, "unit": "µM"}]}]}
